This is an account of results in patent US7238697B2, “Pyridylpyrimidines for use as pesticides” (Bayer CropScience AG, priority 2001, dated 2007).

The subject of the first data set is peach aphids (Myzus persicae). In words: Myzus test (cabbage leaves dipped). The note with it: 144 h, 100 ppm, after 6 d, solvent 30 parts DMF, emulsifier 1 part (Table D-1), read-out: Kill rate in % after 6 d. It counts as in vivo. How it is done: To produce a suitable preparation of active compound, 1 part by weight of active compound is mixed with the stated amounts of solvent and emulsifier, and the concentrate is diluted with emulsifier-containing water to the desired concentration. Cabbage leaves (Brassica oleracea) which are heavily infested by peach aphids (Myzus persicae) are treated by being dipped into the preparation of the active compound of the desired concentration. After the desired period of time, the kill in % is determined. 100% means that all aphids have been killed; 0% means that none of the aphids has been killed.
As to `COC(=O)CSc1nccc(-c2ccccn2)n1` [drawing 415], the pest or weed control at 100 ppm came out at 100%. Regarding `COC(=O)C(Sc1nccc(-c2ccccn2)n1)C(=O)OC` [drawing 421], the pest or weed control at 100 ppm came out at 95%.

Staying with this data set, now noted: 144 h, 200 ppm, after 6 d, solvent 30 parts DMF, emulsifier 1 part (Table D-1), read-out: Kill rate in % after 6 d.
In the case of `COC(=O)CC(=O)CSc1nccc(-c2ccccn2)n1` [drawing 427], the pest or weed control at 200 ppm is 95%.

Still in this data set, the particulars now being: 144 h, 500 ppm, after 6 d, solvent 7 parts DMF, emulsifier 2 parts (Table D-2), read-out: Kill rate in % after 6 d.
With `CCC1(COC(=O)CSc2nccc(-c3ccccn3)n2)CCO1` (stereo not shown) [drawing 428], the pest or weed control at 500 ppm turned out to be 98%. For the molecule `CCOC(=O)C1CC1COC(=O)CSc1nccc(-c2ccccn2)n1` (stereo not shown) [drawing 429], the pest or weed control at 500 ppm is 98%. Turning to `COCN(C)C(=O)COC(=O)CSc1nccc(-c2ccccn2)n1` [drawing 430], the pest or weed control at 500 ppm is 98%. On the same count and under the same terms, with `O=C(CSc1nccc(-c2ccccn2)n1)OCC(F)=C(Cl)Cl` [drawing 431] the figure was 100%; with `O=C(CSc1nccc(-c2ccccn2)n1)OC1CS(=O)(=O)C1` [drawing 432], 100%. Still for that read-out and setting: next, `CC(=O)NCC(C)OC(=O)CSc1nccc(-c2ccccn2)n1` (stereo not shown) [drawing 433]: 95%; `CC(C)OC(=O)C(C)OC(=O)CSc1nccc(-c2ccccn2)n1` (stereo not shown) [drawing 434]: 95%. For the molecule `O=C(CSc1nccc(-c2ccccn2)n1)OC1CC(F)(F)C1(F)F` (stereo not shown) [drawing 435], the pest or weed control at 500 ppm was 100%. For `O=C(CSc1nccc(-c2ccccn2)n1)OC1COC1` [drawing 436], the pest or weed control at 500 ppm was found to be 95%. On to `NC(=O)CCSc1nccc(-c2ccccn2)n1` [drawing 437], for which the pest or weed control at 500 ppm was 80%. Still for that read-out and setting: with `CC(C)(C)SC(=O)CSc1nccc(-c2ccccn2)n1` [drawing 438] the figure was 95%. With `CCOC(=O)CSc1nccc(-c2cc(OC)ccn2)n1` [drawing 439], the pest or weed control at 500 ppm was 90%. For the molecule `CCOC(=O)CSc1nccc(-c2ccc(C)cn2)n1` [drawing 440], the pest or weed control at 500 ppm was 98%.

Staying with this data set, now noted: 144 h, 1000 ppm, after 6 d, solvent 30 parts DMF, emulsifier 1 part (Table D-1), read-out: Kill rate in % after 6 d.
For the molecule `CCOC(=O)CSc1nccc(-c2ccccn2)n1` [drawing 416], the pest or weed control at 1000 ppm was found to be 100%. For `CCCOC(=O)CSc1nccc(-c2ccccn2)n1` [drawing 417], the pest or weed control at 1000 ppm was found to be 95%.

As for `CC(C)OC(=O)CSc1nccc(-c2ccccn2)n1` [drawing 418], the pest or weed control at 1000 ppm was determined as 100%.

Take `C=CCOC(=O)CSc1nccc(-c2ccccn2)n1` [drawing 419]: the pest or weed control at 1000 ppm is 95%. Still for that read-out and setting: with `O=C(CSc1nccc(-c2ccccn2)n1)OC1CCCCC1` [drawing 420] the figure was 100%; with `NC(=O)CSc1nccc(-c2ccccn2)n1` [drawing 422], 95%. Take `COC(=O)CCCSc1nccc(-c2ccccn2)n1` [drawing 423]: the pest or weed control at 1000 ppm came to 100%. Take `O=C(O)CSc1nccc(-c2ccccn2)n1` [drawing 424]: the pest or weed control at 1000 ppm was found to be 100%.

Tested on in the next data set: not listed separately
In words: log P determination by HPLC (reversed-phase C18), EEC Directive 79/831 Annex V.A8. The note with it: reversed-phase C18 HPLC column; pH 2.3; HPLC, reversed-phase C 18, 43° C., 0.1% aqueous phosphoric acid/acetonitrile; read-out: log P (pH 2.3). The class given is physicochemical.
Take `CCC1(COC(=O)CSc2nccc(-c3ccccn3)n2)COCOC1` [Example 222]: the chromatographic logP came out at 2.51. On the same count and under the same terms, next, `C=CC(=O)OCCCOC(=O)CSc1nccc(-c2ccccn2)n1` [Example 224]: 2.49; `COCN(C)C(=O)COC(=O)CSc1nccc(-c2ccccn2)n1` [Example 230]: 1.96. The same measure, in the same setting: next, `CCNC(=O)COC(=O)CSc1nccc(-c2ccccn2)n1` [Example 231]: 1.97; `CON(C)C(=O)COC(=O)CSc1nccc(-c2ccccn2)n1` [Example 234]: 1.97. The same measure, in the same setting: next, `O=C(CSc1nccc(-c2ccccn2)n1)OCCOCC(F)(F)F` [Example 236]: 2.7; `CCOC(=O)C(OC(=O)CSc1nccc(-c2ccccn2)n1)C(C)C` (stereo not shown) [Example 243]: 3.2; `CC(C)NC(=O)OCCOC(=O)CSc1nccc(-c2ccccn2)n1` [Example 245]: 2.19. Take `CC(=O)OC(C)C(C)OC(=O)CSc1nccc(-c2ccccn2)n1` (stereo not shown) [Example 246]: the chromatographic logP was 2.54.

As for `CC(=O)O[C@H]1CCC[C@H]1OC(=O)CSc1nccc(-c2ccccn2)n1` [Example 248], the chromatographic logP was 2.65. As for `O=C(CSc1nccc(-c2ccccn2)n1)OC1COC1` [Example 249], the chromatographic logP amounted to 1.69.

`O=C(CSc1nccc(-c2ccccn2)n1)OCCc1noc(=O)[nH]1` [Example 250]: the chromatographic logP was found to be 1.97. Still for that read-out and setting: next, `Cc1noc(C)c1CCOC(=O)CSc1nccc(-c2ccccn2)n1` [Example 252]: 2.25; `O=C(CSc1nccc(-c2ccccn2)n1)OCC(F)=C(Cl)Cl` [Example 253]: 3.19. Still for that read-out and setting: next, `CCOC(=O)CSc1nccc(-c2ccc(CC)cn2)n1` [Example 254]: 2.98; `CCOC(=O)CSc1nccc(-c2ccc(Cl)cn2)n1` [Example 256]: 3.23; `CCOC(=O)CSc1nccc(-c2ccc(C(F)(F)F)cn2)n1` [Example 257]: 3.48.

With `CCOC(=O)CSc1nccc(-c2cc(CC)ccn2)n1` [Example 259], the chromatographic logP was 2.69. On the same count and under the same terms, next, `CCOC(=O)CSc1nccc(-c2cc(OC)ccn2)n1` [Example 261]: 1.62; `CCOC(=O)CSc1nccc(-c2cc(-c3ccccc3)ccn2)n1` [Example 262]: 3.54. For the molecule `CCOC(=O)CSc1nccc(-c2ncccc2C)n1` [Example 265], the chromatographic logP was 1.85. On the same count and under the same terms, next, `CCOC(=O)CSc1nccc(-c2ncccc2CC)n1` [Example 266]: 2.22; `CCOC(=O)CSc1nccc(-c2ncccc2OC)n1` [Example 268]: 1.34; `CCOC(=O)CSc1nccc(-c2ncccc2C(F)(F)F)n1` [Example 269]: 2.53. On the same count and under the same terms, with `CCOC(=O)CSc1ncc(C)c(-c2ccccn2)n1` [Example 271] the figure was 2.18; with `CCOC(=O)CSc1nccc(-c2ncccc2F)n1` [Example 281], 2.04. Consider `CCOC(=O)CSc1nccc(-c2ccc3ccccc3n2)n1` [Example 296], for which the chromatographic logP turned out to be 3.49. Same read-out and setting: with `CCOC(=O)CSc1nccc(-c2nccc3ccccc23)n1` [Example 298] the figure was 2.51; with `c1ccc(-c2ccnc(SCc3nn[nH]n3)n2)nc1` [Example 299], 1.17; with `Cn1nnc(CSc2nccc(-c3ccccn3)n2)n1` [Example 300], 1.59.

On to `Cn1nnnc1CSc1nccc(-c2ccccn2)n1` [Example 301], for which the chromatographic logP was determined as 1.24. As to `CC(C)(C)n1nnc(CSc2nccc(-c3ccccn3)n2)n1` [Example 302], the chromatographic logP worked out at 2.69. On the same count and under the same terms, with `CC1(CCCOC(=O)CSc2nccc(-c3ccccn3)n2)OCCO1` [Example 303] the figure was 2.57; with `CCOC(=O)c1cc(NC(=O)NCCCOC(=O)CSc2nccc(-c3ccccn3)n2)ccc1Cl` [Example 304], 5.37.

In the case of `CCOC(=O)CSc1nccc(-c2ccc(Br)cn2)n1` [Example 305], the chromatographic logP was 3.39. On the same count and under the same terms, next, `CCOC(=O)CSc1nccc(-c2ccc([N+](=O)[O-])cn2)n1` [Example 306]: 2.77.

Take `CCOC(=O)CSc1nccc(-c2cccc(Br)n2)n1` [Example 307]: the chromatographic logP stood at 3.31. Turning to `O=C(CSc1nccc(-c2ccccn2)n1)Nc1cccc([N+](=O)[O-])c1` [Example 308], the chromatographic logP came out at 2.25. On the same count and under the same terms, next, `COC(=O)c1ccc(NC(=O)CSc2nccc(-c3ccccn3)n2)cc1` [Example 309]: 2.16. Still for that read-out and setting: next, `CCOC(=O)C(C)N(C)C(=O)CSc1nccc(-c2ccccn2)n1` (stereo not shown) [Example 310]: 1.93; `CCOC(=O)/C=C(/CSc1nccc(-c2ccccn2)n1)OCC` [Example 311]: 3.39; `CC(C)(C)SC(=O)CSc1nccc(-c2ccccn2)n1` [Example 312]: 3.61. On the same count and under the same terms, next, `Cc1c(NC(=O)CSc2nccc(-c3ccccn3)n2)cccc1[N+](=O)[O-]` [Example 313]: 2.28.

`NC(=O)CCSc1nccc(-c2ccccn2)n1` [Example 314]: the chromatographic logP is 0.96. Still for that read-out and setting: with `CCOC(=O)CN(CC)c1nccc(-c2ccccn2)n1` [Example 315] the figure was 2.13; with `CCOC(=O)CSc1nccc(-c2cc(C(C)(C)C)ccn2)n1` [Example 316], 3.55. Same read-out and setting: next, `CCOC(=O)CSc1nccc(-c2ccc(SC)cn2)n1` [Example 317]: 1.68; `N#CCSc1nccc(-c2ccccn2)n1` [{[4-(2-pyridinyl)-2-pyrimidinyl]thio}acetonitrile]: 1.68.

The next data set concerns Meloidogyne incognita. Description: Meloidogyne test (gall formation on lettuce roots). The class given is in vivo. The note with it: 336 h, after 14 d, solvent 30 parts DMF, emulsifier 1 part (Table C-1), read-out: Kill rate in % after 14 d. How it is done: To produce a suitable preparation of active compound, 1 part by weight of active compound is mixed with the stated amounts of solvent and emulsifier, and the concentrate is diluted with water to the desired concentration. Vessels are filled with sand, solution of active compound, Meloidogyne incognita egg/larvae suspension and lettuce seeds. The lettuce seeds germinate and the plants develop. On the roots, galls are formed. After the desired period of time, the nematicidal action is determined in % by the gall formation. 100% means that no galls were found; 0% means that the number of galls on the treated plants corresponds to that of the untreated control.
In the case of `CCOC(=O)CSc1nccc(-c2ccccn2)n1` [drawing 402], the pest or weed control at 20 ppm is 90%.
